Results from ChEMBL document CHEMBL4382224, “Synthesis and evaluation of potent and selective MGL inhibitors as a glaucoma treatment” (Bioorg Med Chem, 2019).
Active and inactive are the calls of the source. The calls are words filed in the database; no cut-off is given here.

What was measured:
[1] = biological target: T1, Fatty-acid amide hydrolase 1 (Rattus norvegicus, UniProt P97612); assay: Inhibition of rat FAAH using AAMCA as substrate by fluorescence assay
T1 sequence (P97612 whole entry): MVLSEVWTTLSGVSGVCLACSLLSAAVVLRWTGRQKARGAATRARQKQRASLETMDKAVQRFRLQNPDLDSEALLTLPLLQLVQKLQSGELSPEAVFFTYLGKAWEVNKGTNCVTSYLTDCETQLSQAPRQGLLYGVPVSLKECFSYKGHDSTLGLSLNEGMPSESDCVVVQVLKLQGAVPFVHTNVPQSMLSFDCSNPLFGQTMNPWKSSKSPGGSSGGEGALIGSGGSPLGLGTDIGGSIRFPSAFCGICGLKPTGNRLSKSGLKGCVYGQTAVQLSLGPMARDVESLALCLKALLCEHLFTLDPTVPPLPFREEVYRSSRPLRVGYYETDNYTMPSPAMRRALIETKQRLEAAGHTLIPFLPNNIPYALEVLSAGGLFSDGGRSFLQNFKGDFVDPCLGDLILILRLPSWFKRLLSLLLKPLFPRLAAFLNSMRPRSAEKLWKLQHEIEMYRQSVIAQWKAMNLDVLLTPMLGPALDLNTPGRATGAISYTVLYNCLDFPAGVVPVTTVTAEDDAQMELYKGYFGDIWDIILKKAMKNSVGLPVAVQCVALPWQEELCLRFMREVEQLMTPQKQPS

[2] = biological target: T2, Monoacylglycerol lipase ABHD6 (Homo sapiens) (UniProt Q9BV23); assay: Inhibition of human ABHD6 at >10 uM
T2 sequence (whole entry): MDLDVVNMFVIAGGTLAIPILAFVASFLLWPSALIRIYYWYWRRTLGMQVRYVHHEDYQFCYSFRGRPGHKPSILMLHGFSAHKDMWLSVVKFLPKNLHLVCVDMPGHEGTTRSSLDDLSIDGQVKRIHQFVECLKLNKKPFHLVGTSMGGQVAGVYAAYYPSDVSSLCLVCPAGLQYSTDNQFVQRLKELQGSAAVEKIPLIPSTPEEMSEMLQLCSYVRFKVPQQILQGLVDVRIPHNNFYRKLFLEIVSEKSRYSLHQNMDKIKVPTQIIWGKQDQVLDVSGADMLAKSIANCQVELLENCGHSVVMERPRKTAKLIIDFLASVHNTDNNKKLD

[3] = biological target: Cannabinoid receptor 2 (Homo sapiens) (UniProt P34972); assay: Displacement of [3H]CP-55,940 from recombinant human CB2 receptor expressed in HEK293 cells at >1 uM after 1 hr by scintillation counting method; assay type: cell-based
[4] = biological target: Cannabinoid receptor 2 (Mus musculus) (UniProt P47936); assay: Displacement of [3H]CP-55,940 from recombinant mouse CB2 receptor expressed in HEK293 cells at >1 uM after 1 hr by scintillation counting method; assay type: cell-based
Cannabinoid receptor 1 = Cannabinoid receptor 1 (Rattus norvegicus, UniProt P20272); assay: Displacement of [3H]CP-55,940 from rat CB1 receptor at >1 uM after 1 hr by scintillation counting method
[5] = Half life in human liver microsomes pretreated with compounds followed by NADPH addition by LC-MS/MS analysis; assay type: ADME, Microsome
[6] = Half life in rat liver microsomes pretreated with compounds followed by NADPH addition by LC-MS/MS analysis; assay type: ADME, Microsome
[7] = Half life in mouse liver microsomes pretreated with compounds followed by NADPH addition by LC-MS/MS analysis; assay type: ADME, Microsome
[8] = Half life in mouse plasma at 200 uM by HPLC analysis; assay type: ADME, cell-free
[9] = Half life in rat plasma at 200 uM by HPLC analysis; assay type: ADME, cell-free
[10] = Half life in human plasma at 200 uM by HPLC analysis; assay type: ADME, cell-free
[11] = Oral bioavailability in CD1 mouse at 10 mg/kg; assay type: ADME, organism-based; conditions: in vivo
[12] = Drug uptake in CD1 mouse brain at 2 mg/kg, iv or 10 mg/kg, po; assay type: ADME, organism-based; conditions: in vivo
[13] = Mean residence time in CD1 mouse at 2 mg/kg, iv or 10 mg/kg, po; assay type: ADME, organism-based; conditions: in vivo
Mus musculus = assay: Anti-glaucoma activity in normotensive C57BL/6J mouse assessed as intraocular pressure at 3 mM administered as single topical treatment measured after 28 hrs by tonometry (reference value: […] +/- 1.1 mmHg); assay type: functional

Sequence of Cannabinoid receptor 1 (P20272 whole entry): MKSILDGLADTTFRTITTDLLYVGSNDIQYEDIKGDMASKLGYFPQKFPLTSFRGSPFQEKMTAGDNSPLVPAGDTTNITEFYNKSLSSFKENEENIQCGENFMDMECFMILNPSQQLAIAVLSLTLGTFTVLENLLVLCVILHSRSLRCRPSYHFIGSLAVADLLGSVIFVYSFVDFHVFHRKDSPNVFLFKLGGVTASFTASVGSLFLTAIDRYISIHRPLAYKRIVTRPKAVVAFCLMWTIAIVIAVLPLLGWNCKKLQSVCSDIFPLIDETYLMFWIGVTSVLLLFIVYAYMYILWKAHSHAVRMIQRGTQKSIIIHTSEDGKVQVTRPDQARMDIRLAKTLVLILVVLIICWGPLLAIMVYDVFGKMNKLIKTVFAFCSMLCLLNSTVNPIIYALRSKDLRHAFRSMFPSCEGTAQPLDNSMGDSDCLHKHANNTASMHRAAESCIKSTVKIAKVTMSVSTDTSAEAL
Sequence of Cannabinoid receptor 2 (Homo sapiens) (P34972 whole entry): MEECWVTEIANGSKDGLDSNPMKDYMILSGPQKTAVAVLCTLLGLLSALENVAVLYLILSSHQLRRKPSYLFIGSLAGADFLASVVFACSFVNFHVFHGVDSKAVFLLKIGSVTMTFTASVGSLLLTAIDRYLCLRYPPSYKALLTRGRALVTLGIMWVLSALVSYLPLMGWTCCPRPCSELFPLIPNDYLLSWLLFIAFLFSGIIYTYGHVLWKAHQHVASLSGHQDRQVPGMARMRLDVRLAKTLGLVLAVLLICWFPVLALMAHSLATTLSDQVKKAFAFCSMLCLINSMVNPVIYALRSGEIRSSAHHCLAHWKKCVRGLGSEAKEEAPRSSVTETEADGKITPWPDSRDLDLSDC
Sequence of Cannabinoid receptor 2 (Mus musculus) (P47936 whole entry): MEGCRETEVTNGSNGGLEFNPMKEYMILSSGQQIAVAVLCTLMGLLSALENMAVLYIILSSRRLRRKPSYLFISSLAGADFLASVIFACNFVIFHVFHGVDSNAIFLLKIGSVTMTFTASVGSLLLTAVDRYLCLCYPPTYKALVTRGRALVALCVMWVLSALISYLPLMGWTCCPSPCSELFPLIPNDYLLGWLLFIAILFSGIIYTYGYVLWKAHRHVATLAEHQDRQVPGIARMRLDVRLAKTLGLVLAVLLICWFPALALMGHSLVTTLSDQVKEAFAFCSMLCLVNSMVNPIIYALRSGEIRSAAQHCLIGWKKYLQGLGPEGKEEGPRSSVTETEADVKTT

Row | Compound | IC50 [1] | inhibition [2] | Activity [3] | Activity [4] | Activity (Cannabinoid receptor 1) | t1/2 [5] | t1/2 [6] | t1/2 [7] | t1/2 [8] | t1/2 [9] | t1/2 [10] | bioavailability [11] | Drug uptake [12] | MRT [13] | Activity (Mus musculus)
1 | COc1cc(C#N)cc(OC(=O)N2CCC(C(c3ccccc3)c3ccccc3)CC2)c1 | > 1000 nM | inactive | inactive | inactive | Not Active |  |  |  |  |  |  |  |  |  | 
2 | N#Cc1cccc(OC(=O)N2CCC(C(c3ccc(Cl)cc3)c3ccc(Cl)cc3)CC2)c1 | > 1000 nM | inactive | inactive | inactive | Not Active |  |  |  |  |  |  |  |  |  | 
3 | N#Cc1cccc(OC(=O)N2CCN(C3CC3)CC2)c1 | 63 nM | inactive | inactive | inactive | Not Active |  |  |  |  |  |  |  |  |  | 
4 | N#Cc1cc(F)cc(OC(=O)N2CCC(C(c3ccccc3)c3ccccc3)CC2)c1 | > 1000 nM | inactive | inactive | inactive | Not Active |  |  |  |  |  |  |  |  |  | 
5 | N#Cc1cccc(OC(=O)N2CCC(C(c3ccccc3)c3ccccc3)CC2)c1 | > 1000 nM | inactive | inactive | inactive | Not Active | 2.03 h | 0.717 h | 0.333 h | > 2 h | > 2 h | > 2 h | 15% | 65% | 6 h | 19.9 mmHg
6 | Cc1cc(C#N)cc(OC(=O)N2CCC(C(c3ccccc3)c3ccccc3)CC2)c1 | > 1000 nM | inactive | inactive | inactive | Not Active |  |  |  |  |  |  |  |  |  | 
7 | N#Cc1cccc(OC(=O)N2CCC(S(=O)(=O)C(c3ccccc3)c3ccccc3)CC2)c1 |  | inactive | inactive | inactive | Not Active |  |  |  |  |  |  |  |  |  | 
8 | N#Cc1cccc(OC(=O)N2CCN(C(c3ccccc3)c3cccnc3)CC2)c1 (stereo not drawn) | > 1000 nM | inactive | inactive | inactive | Not Active |  |  |  |  |  |  |  |  |  | 
9 | N#Cc1cc(O)cc(OC(=O)N2CCC(C(c3ccccc3)c3ccccc3)CC2)c1 | > 1000 nM | inactive | inactive | inactive | Not Active |  |  |  |  |  |  |  |  |  | 
10 | O=C(Oc1ccccc1)N1CCN(C(c2ccccc2)c2ccccc2)CC1 |  | inactive | inactive | inactive | Not Active |  |  |  |  |  |  |  |  |  | 
11 | N#Cc1cccc(OC(=O)N2CCN(C(c3ccc(F)cc3)c3ccc(F)cc3)CC2)c1 | > 1000 nM | inactive | inactive | inactive | Not Active |  |  |  |  |  |  |  |  |  | 
12 | N#Cc1ccnc(OC(=O)N2CCC(C(c3ccccc3)c3ccccc3)CC2)c1 | > 1000 nM | inactive | inactive | inactive | Not Active |  |  |  |  |  |  |  |  |  | 
13 | N#Cc1ccc(F)c(OC(=O)N2CCC(C(c3ccccc3)c3ccccc3)CC2)c1 | > 1000 nM | inactive | inactive | inactive | Not Active |  |  |  |  |  |  |  |  |  | 
14 | CC(C)N1CCN(C(=O)Oc2cccc(C#N)c2)CC1 | 68 nM | inactive | inactive | inactive | Not Active |  |  |  |  |  |  |  |  |  | 
15 | N#Cc1cccc(OC(=O)N2CCN(C3CCCCC3)CC2)c1 | 67 nM | inactive | inactive | inactive | Not Active |  |  |  |  |  |  |  |  |  | 
16 | N#Cc1cccc(OC(=O)N2CCC(NC(c3ccccc3)c3ccccc3)CC2)c1 | > 1000 nM | inactive | inactive | inactive | Not Active |  |  |  |  |  |  |  |  |  | 
17 | N#Cc1cccc(OC(=O)N2CCC(C(c3ccccc3)c3ccccc3)CC2)n1 | > 1000 nM | inactive | inactive | inactive | Not Active |  |  |  |  |  |  |  |  |  | 
18 | N#Cc1cccc(OC(=O)N2CCC(OC(c3ccccc3)c3ccccc3)CC2)c1 | > 1000 nM | inactive | inactive | inactive | Not Active |  |  |  |  |  |  |  |  |  | 
19 | N#Cc1cccc(OC(=O)N2CCN(C(c3ccccc3)c3ccccc3)CC2)c1 | > 1000 nM | inactive | inactive | inactive | Not Active |  |  |  |  |  |  |  |  |  | 
20 | N#Cc1cccc(OC(=O)N2CCN(C3c4ccccc4-c4ccccc43)CC2)c1 | > 1000 nM | inactive | inactive | inactive | Not Active |  |  |  |  |  |  |  |  |  | 
